These are literature values, as cited in patent US20170273925A1 (Cumberland Pharmaceuticals Inc., priority 2014, published 2017).

Structures are written as SMILES.

As to `CC(C)Cc1ccc(C(C)C(=O)O)cc1` (stereo not shown) [ibuprofen, 2-(4-isobutylphenyl) propionic acid], the Solubility in water entry was “very poorly soluble in water”.
